# Data: patent publication US6503749B2 (Aventis Pharma S.A., priority 1998, dated 2003)
# Molecular target: T1, APAT (acetyl-coenzyme A pregnenolone acetyltransferase) (Saccharomyces cerevisiae, UniProt P53296)
# T1 construct: the semi-purified APAT transfers the acetate on 3β-ol, delta^4 or delta^5-steroids; endogenous in cells; host or cells: S. cerevisiae strain TGY73.4; endogenous enzyme purified in house from cell lysate (ZnCl2 precipitation, DEAE-Sephacel, Phenyl-Sepharose, Q-Sepharose, cholate-Sepharose)
# T1 sequence (P53296 whole entry): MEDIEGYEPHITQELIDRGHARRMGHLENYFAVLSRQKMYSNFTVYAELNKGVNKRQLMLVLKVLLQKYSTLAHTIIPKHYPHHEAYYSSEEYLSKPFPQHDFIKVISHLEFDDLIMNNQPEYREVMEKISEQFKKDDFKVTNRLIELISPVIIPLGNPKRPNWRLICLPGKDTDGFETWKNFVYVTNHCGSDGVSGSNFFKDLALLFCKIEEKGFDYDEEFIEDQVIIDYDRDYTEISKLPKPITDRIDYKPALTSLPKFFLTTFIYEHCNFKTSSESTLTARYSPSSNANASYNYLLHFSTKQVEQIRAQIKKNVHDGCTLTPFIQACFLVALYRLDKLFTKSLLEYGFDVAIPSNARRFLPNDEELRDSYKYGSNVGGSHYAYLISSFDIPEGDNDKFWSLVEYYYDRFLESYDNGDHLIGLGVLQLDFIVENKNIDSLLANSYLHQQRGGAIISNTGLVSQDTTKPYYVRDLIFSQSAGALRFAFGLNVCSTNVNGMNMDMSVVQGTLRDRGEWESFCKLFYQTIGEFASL
# Assay: Test of APAT enzyme activity (semi-purified APAT; substrate specificity and inhibition)
# Type: biochemical, S. cerevisiae
# Settings: 30 μM of each steroid tested and 100 μM of [3H]acetyl-CoA; semi-purified APAT
# Protocol: The pregnenolone is added in solution in 2 μl of tyloxapol (Sigma)/ethanol mixture (1:1) in a potassium phosphate buffer (20 mM) at pH 7.0. After incubation for 15 minutes at 30° C., the reaction is stopped by adding 2 ml of dichloromethane.
# The steroids are extracted with dichloromethane, then separated by reversed-phase high-performance liquid chromatography (hereinafter: RP-HPLC) in isocratic elution conditions with acetonitrile in an Ultrasphere ODS column (Beckman) at 45° C. on an HP 1090 chromatograph (Hewlett-Packard) connected to a FLO-One 500 radiodetector (Packard) which permits measurement of the amount of pregnenolone [^3H]acetate formed.
# One APAT unit is defined as the quantity of enzyme that produces 1 nmol of pregnenolone acetate per minute at 30° C., in the conditions described above.
row,Structure (SMILES),"Relative activity (%), Substrate a) [%]"
1,CC(=O)[C@H]1CC[C@H]2[C@@H]3CC=C4C[C@@H](O)CC[C@]4(C)[C@H]3CC[C@]12C [Pregnenolone],100
2,"CC(=O)[C@@]1(O)CC[C@H]2[C@@H]3CC=C4C[C@@H](O)CC[C@]4(C)[C@H]3CC[C@@]21C [17α-OH pregnenolone, 17α-hydroxypregnenolone]",89
3,CC(C)CCC[C@@H](C)[C@H]1CC[C@H]2[C@@H]3CC=C4C[C@@H](O)CC[C@]4(C)[C@H]3CC[C@]12C [cholesterol],0.6
4,C[C@]12CC[C@@H]3c4ccc(O)cc4CC[C@H]3[C@@H]1CCC2=O [oestrone],2.5
5,C[C@]12CC[C@@H]3c4ccc(O)cc4CC[C@H]3[C@@H]1CC[C@@H]2O [17β-oestradiol],5
6,CC(C)[C@@H](C)/C=C/[C@@H](C)[C@H]1CC[C@H]2C3=CC=C4C[C@@H](O)CC[C@]4(C)[C@H]3CC[C@]12C [ergosterol],0.4
7,"C[C@]12CC[C@H](O)CC1=CC[C@@H]1[C@@H]2CC[C@]2(C)C(=O)CC[C@@H]12 [DHEA, dehydroepiandrosterone]",104
8,CC(=O)[C@H]1CC[C@H]2[C@@H]3CCC4=C[C@@H](O)CC[C@]4(C)[C@H]3CC[C@]12C [4-pregnen-3βol-20-one],70
9,CC(=O)[C@H]1CC[C@H]2[C@@H]3CC[C@@H]4C[C@@H](O)CC[C@]4(C)[C@H]3CC[C@]12C [5β-pregnan-3βol-20-one],1.8

# Same assay, conditions: 100 μM of each acyl donor and 30 μM of [3H]pregnenolone; semi-purified APAT
row,Structure (SMILES),"Relative activity (%), Substrate b)"
1,CCCCCCCC/C=C\CCCCCCCC(=O)SCCNC(=O)CCNC(=O)[C@H](O)C(C)(C)COP(=O)(O)OP(=O)(O)OC[C@H]1O[C@@H](n2cnc3c(N)ncnc32)[C@H](O)[C@@H]1OP(=O)(O)O [oleoyl-CoA],not detected
2,CCCCCC(=O)SCCNC(=O)CCNC(=O)[C@H](O)C(C)(C)COP(=O)(O)OP(=O)(O)OC[C@H]1O[C@@H](n2cnc3c(N)ncnc32)[C@H](O)[C@@H]1OP(=O)(O)O [hexanoyl-CoA],18%
3,CCC(=O)SCCNC(=O)CCNC(=O)[C@H](O)C(C)(C)COP(=O)(O)OP(=O)(O)OC[C@H]1O[C@@H](n2cnc3c(N)ncnc32)[C@H](O)[C@@H]1OP(=O)(O)O [propionyl-CoA],33%
4,CCCC(=O)SCCNC(=O)CCNC(=O)[C@H](O)C(C)(C)COP(=O)(O)OP(=O)(O)OC[C@H]1O[C@@H](n2cnc3c(N)ncnc32)[C@H](O)[C@@H]1OP(=O)(O)O [butyryl-CoA],16%

# Same assay, conditions: reagents of sulfhydryl groups
row,Structure (SMILES),Inhibition of APAT activity
1,O=C(O)c1cc(SSc2ccc([N+](=O)[O-])c(C(=O)O)c2)ccc1[N+](=O)[O-] [DTNB],strongly inhibited
2,CCN1C(=O)C=CC1=O [NEM],strongly inhibited

# Same assay, conditions: zinc chloride 1 mM
row,Structure (SMILES),Inhibition of APAT activity
1,[Cl-].[Cl-].[Zn+2] [zinc chloride],complete
